Experiments:
Format in all cases: in vivo
RAO horses [1] = test: 1st ciclesonide study: moldy hay challenge, lung function variables and breathing effort score; conditions: after 14 days
RAO horses [2] = test: 1st ciclesonide study: moldy hay challenge, serum cortisol; conditions: any ciclesonide group (450/900/1800 μg/horse twice daily); any measured time point
RAO horses [3] = test: 2nd ciclesonide study: moldy hay challenge, lung function variables and weighted clinical score
Source text: (§1) The commercially available […]® is used in the study.

RAO horses [4] = test: 2nd ciclesonide study: moldy hay challenge, serum cortisol; conditions: any ciclesonide group (1687.5/2700 A/2700 B μg twice daily); any measured time point
Source text: as §1

RAO horses [5] = test: Segmented neutrophil and lymphocyte counts in the 1st and 2nd ciclesonide studies; conditions: mean, n=8
Description: as §1
The segmented neutrophil counts and the lymphocyte counts are determined in the studies above: ciclesonide treatment versus dexamethasone treatment.
Concentration of segmented neutrophils and lymphocytes on day (D): D0, D14 and D21 in the treatment groups of dexamethasone and different doses of ciclesonide (n=8) (mean (SEM)

[6] = 450 μg ciclesonide/horse twice daily 14 days per inhalation (nozzle A), 1st study, D 0
[7] = 450 μg ciclesonide/horse twice daily 14 days per inhalation (nozzle A), 1st study, D 14
[8] = 450 μg ciclesonide/horse twice daily 14 days per inhalation (nozzle A), 1st study, D 21
[9] = 900 μg ciclesonide/horse twice daily 14 days per inhalation (nozzle A), 1st study, D 0
[10] = 900 μg ciclesonide/horse twice daily 14 days per inhalation (nozzle A), 1st study, D 14
[11] = 900 μg ciclesonide/horse twice daily 14 days per inhalation (nozzle A), 1st study, D 21
[12] = 1687.5 μg ciclesonide/horse twice daily 14 days per inhalation (nozzle B), 2nd study, D 0
[13] = 1687.5 μg ciclesonide/horse twice daily 14 days per inhalation (nozzle B), 2nd study, D 14
[14] = 1687.5 μg ciclesonide/horse twice daily 14 days per inhalation (nozzle B), 2nd study, D 21
[15] = 1800 μg ciclesonide/horse twice daily 14 days per inhalation (nozzle A), 1st study, D 0
[16] = 1800 μg ciclesonide/horse twice daily 14 days per inhalation (nozzle A), 1st study, D 14
[17] = 1800 μg ciclesonide/horse twice daily 14 days per inhalation (nozzle A), 1st study, D 21
[18] = 2700 μg ciclesonide A (nozzle A)/horse twice daily 14 days per inhalation, 2nd study, D 0
[19] = 2700 μg ciclesonide A (nozzle A)/horse twice daily 14 days per inhalation, 2nd study, D 14
[20] = 2700 μg ciclesonide A (nozzle A)/horse twice daily 14 days per inhalation, 2nd study, D 21
[21] = 2700 μg ciclesonide B (nozzle B)/horse twice daily 14 days per inhalation, 2nd study, D 0
[22] = 2700 μg ciclesonide B (nozzle B)/horse twice daily 14 days per inhalation, 2nd study, D 14
[23] = 2700 μg ciclesonide B (nozzle B)/horse twice daily 14 days per inhalation, 2nd study, D 21

CC(C)C(=O)OCC(=O)[C@@]12O[C@H](C3CCCCC3)O[C@@H]1C[C@H]1[C@@H]3CCC4=CC(=O)C=C[C@]4(C)[C@H]3[C@@H](O)C[C@@]12C [ciclesonide, (11β,16α)-16,17-[[(R)-Cyclohexylmethylene]bis(oxy)]-11-hydroxy-21-(2-methyl-1-oxopropoxy)pregna-1,4-diene-3,20-dione]
ΔPL and EL compared to pretreatment values (RAO horses [1]; ciclesonide 1800 μg/horse ex RESPIMAT twice daily per inhalation, p=0.0005 and p=0.0004): statistically significant reduction
ΔPL and EL, difference to dexamethasone group (RAO horses [1]; ciclesonide 1800 μg/horse ex RESPIMAT twice daily): no significant difference
serum cortisol levels (RAO horses [2]): no significant reduction
all lung function variables (ΔPL, RL, EL) compared to pretreatment values (RAO horses [3]; all ciclesonide groups (1687.5 μg nozzle B/2700 μg nozzle A/2700 μg nozzle B twice daily), after 14 days, p=0.0009 to p<0.0001): significantly reduced
lung function variables, difference to dexamethasone group (RAO horses [3]; all ciclesonide groups (1687.5/2700 A/2700 B μg twice daily), after 7 or 14 days): no significant difference
weighted clinical score compared to pretreatment values (RAO horses [3]; all three ciclesonide groups (1687.5/2700 A/2700 B μg twice daily), after 14 days, p=0.0001 to p<0.0001): significantly reduced
weighted clinical score, difference to dexamethasone group (RAO horses [3]; ciclesonide treatment groups (1687.5/2700 A/2700 B μg twice daily), after 14 days): no significant difference
serum cortisol levels (RAO horses [4]): no significant reduction
Lymphocytes (RAO horses [5]; [6]): 1.96e+09 L⁻¹
Segmented neutrophils (RAO horses [5]; [6]): 4.66e+09 L⁻¹
Lymphocytes (RAO horses [5]; [7]): 1.97e+09 L⁻¹
Segmented neutrophils (RAO horses [5]; [7]): 4.98e+09 L⁻¹
Lymphocytes (RAO horses [5]; [8]): 2.17e+09 L⁻¹
Segmented neutrophils (RAO horses [5]; [8]): 5.48e+09 L⁻¹
Lymphocytes (RAO horses [5]; [9]): 1.85e+09 L⁻¹
Segmented neutrophils (RAO horses [5]; [9]): 5.24e+09 L⁻¹
Lymphocytes (RAO horses [5]; [10]): 2.03e+09 L⁻¹
Segmented neutrophils (RAO horses [5]; [10]): 4.43e+09 L⁻¹
Lymphocytes (RAO horses [5]; [11]): 1.94e+09 L⁻¹
Segmented neutrophils (RAO horses [5]; [11]): 4.91e+09 L⁻¹
Lymphocytes (RAO horses [5]; [12]): 1.93e+09 L⁻¹
Segmented neutrophils (RAO horses [5]; [12]): 4.51e+09 L⁻¹
Lymphocytes (RAO horses [5]; [13]): 1.94e+09 L⁻¹
Segmented neutrophils (RAO horses [5]; [13]): 5.22e+09 L⁻¹
Lymphocytes (RAO horses [5]; [14]): 2.04e+09 L⁻¹
Segmented neutrophils (RAO horses [5]; [14]): 4.55e+09 L⁻¹
Lymphocytes (RAO horses [5]; [15]): 1.95e+09 L⁻¹
Segmented neutrophils (RAO horses [5]; [15]): 4.6e+09 L⁻¹
Lymphocytes (RAO horses [5]; [16]): 1.96e+09 L⁻¹
Segmented neutrophils (RAO horses [5]; [16]): 5.41e+09 L⁻¹
Lymphocytes (RAO horses [5]; [17]): 2.06e+09 L⁻¹
Segmented neutrophils (RAO horses [5]; [17]): 4.93e+09 L⁻¹
Lymphocytes (RAO horses [5]; [18]): 2.04e+09 L⁻¹
Segmented neutrophils (RAO horses [5]; [18]): 4.91e+09 L⁻¹
Lymphocytes (RAO horses [5]; [19]): 2.14e+09 L⁻¹
Segmented neutrophils (RAO horses [5]; [19]): 4.85e+09 L⁻¹
Lymphocytes (RAO horses [5]; [20]): 2.01e+09 L⁻¹
Segmented neutrophils (RAO horses [5]; [20]): 4.41e+09 L⁻¹
Lymphocytes (RAO horses [5]; [21]): 1.8e+09 L⁻¹
Segmented neutrophils (RAO horses [5]; [21]): 4.23e+09 L⁻¹
Lymphocytes (RAO horses [5]; [22]): 1.74e+09 L⁻¹
Segmented neutrophils (RAO horses [5]; [22]): 4.75e+09 L⁻¹
Lymphocytes (RAO horses [5]; [23]): 2.01e+09 L⁻¹
Segmented neutrophils (RAO horses [5]; [23]): 4.84e+09 L⁻¹

Source: patent US10258634B2, “Ciclesonide for the treatment of airway disease in horses” (Boehringer Ingelheim Vetmedica GmbH, priority 2012, dated 2019)
